System: Wnt activity (wnt-responsive SP5 promoter luciferase reporter in SW480 cells)
Assay: Wnt reporter screening assay: SP5 promoter-driven firefly luciferase in SW480 cells
Assay type: cell-based
Details: Homo sapiens; SW480 colon cancer cells with SP5 promoter luciferase reporter; half-log dilutions, ten micromolar top concentration; read 24-40 h after compound addition; normalized to DMSO; read-out: Wnt inhibition
Description: Another screening assay for Wnt activity is described as follows. Reporter cell lines can be generated by stably transducing cells of cancer cell lines (e.g., colon cancer) with a lentiviral construct that include a wnt-responsive promoter driving expression of the firefly luciferase gene.
Lentiviral constructs can be made in which the SP5 promoter, a promoter having eight TCF/LEF binding sites derived from the SP5 promoter, is linked upstream of the firefly luciferase gene. The lentiviral constructs can also include a hygromycin resistance gene as a selectable marker. The SP5 promoter construct can be used to transduce SW480 cells, a colon cancer cell line having a mutated APC gene that generates a truncated APC protein, leading to de-regulated accumulation of β-catenin.
Cultured SW480 cells bearing a reporter construct can be distributed at approximately 10,000 cells per well into 96 well or 384 well plates. Compounds from a small molecule compound library can then be added to the wells in half-log dilutions using a ten micromolar top concentration. A series of control wells for each cell type receive only buffer and compound solvent. Twenty-four to forty hours after the addition of compound, reporter activity for luciferase can be assayed, for example, by addition of the BrightGlo luminescence reagent (Promega) and the Victor3 plate reader (Perkin Elmer). Readings can be normalized to DMSO only treated cells, and normalized activities can then be used in the IC50 calculations.

CN(C)C(=O)Nc1cncc(-c2ccc3[nH]nc(C(=O)Nc4cccnc4)c3c2)c1 [Compound 1, 5-(5-(3,3-dimethylureido)pyridin-3-yl)-N-(pyridin-3-yl)-1H-indazole-3-carboxamide]
IC50: 175 nM

O=C(Nc1ccc(C(F)(F)F)nc1)c1n[nH]c2ccc(-c3cncc(F)c3)cc12 [Compound 2, 5-(5-fluoropyridin-3-yl)-N-(6-(trifluoromethyl)pyridin-3-yl)-1H-indazole-3-carboxamide]
IC50: 5000 nM

O=C(Nc1ccc(C(F)(F)F)nc1)c1n[nH]c2ccc(-c3cccnc3)cc12 [Compound 3, 5-(Pyridin-3-yl)-N-(6-(trifluoromethyl)pyridin-3-yl)-1H-indazole-3-carboxamide]
IC50: 200 nM

O=C(Nc1cccnc1)c1n[nH]c2ccc(-c3cccnc3)cc12 [Compound 4, N,5-di(pyridin-3-yl)-1H-indazole-3-carboxamide]
IC50: 160 nM

O=C(Nc1cccc(-c2cccc(F)c2)c1)c1n[nH]c2ccc(-c3cccnc3)cc12 [Compound 5, N-(3′-Fluorobiphenyl-3-yl)-5-(pyridin-3-yl)-1H-indazole-3-carboxamide]
IC50: ≥ 10000 nM

O=C(Nc1ccncc1)c1n[nH]c2ccc(-c3cccnc3)cc12 [Compound 6, 5-(Pyridin-3-yl)-N-(pyridin-4-yl)-1H-indazole-3-carboxamide]
IC50: 270 nM

CN(C)Cc1cncc(NC(=O)c2n[nH]c3ccc(-c4cccnc4)cc23)c1 [Compound 7, N-(5-((Dimethylamino)methyl)pyridin-3-yl)-5-(pyridin-3-yl)-1H-indazole-3-carboxamide]
IC50: 110 nM

O=C(Nc1ccc(CN2CCCC2)nc1)c1n[nH]c2ccc(-c3cccnc3)cc12 [Compound 8, 5-(Pyridin-3-yl)-N-(6-(pyrrolidin-1-ylmethyl)pyridin-3-yl)-1H-indazole-3-carboxamide]
IC50: 130 nM

O=C(Nc1cncc(-c2cccc(F)c2)c1)c1n[nH]c2ccc(-c3cccnc3)cc12 [Compound 9, N-(5-(3-Fluorophenyl)pyridin-3-yl)-5-(pyridin-3-yl)-1H-indazole-3-carboxamide]
IC50: ≥ 10000 nM

CN1CCN(c2ncccc2NC(=O)c2n[nH]c3ccc(-c4cccnc4)cc23)CC1 [Compound 11, N-(2-(4-Methylpiperazin-1-yl)pyridin-3-yl)-5-(pyridin-3-yl)-1H-indazole-3-carboxamide]
IC50: ≥ 10000 nM

CN1CCN(c2ccc(NC(=O)c3n[nH]c4ccc(-c5cccnc5)cc34)cn2)CC1 [Compound 12, N-(6-(4-Methylpiperazin-1-yl)pyridin-3-yl)-5-(pyridin-3-yl)-1H-indazole-3-carboxamide]
IC50: 63 nM

O=C(Nc1cccnc1)c1n[nH]c2ccc(-c3cncc(F)c3)cc12 [Compound 13, 5-(5-fluoropyridin-3-yl)-N-(pyridin-3-yl)-1H-indazole-3-carboxamide]
IC50: 1250 nM

O=C(Nc1ccnnc1)c1n[nH]c2ccc(-c3cccnc3)cc12 [Compound 14, N-(Pyridazin-4-yl)-5-(pyridin-3-yl)-1H-indazole-3-carboxamide]
IC50: 106 nM

CN1CCN(Cc2ccc(NC(=O)c3n[nH]c4ccc(-c5cccnc5)cc34)cn2)CC1 [Compound 15, N-(6-((4-Methylpiperazin-1-yl)methyl)pyridin-3-yl)-5-(pyridin-3-yl)-1H-indazole-3-carboxamide]
IC50: 37 nM

O=C(Nc1cccnc1)c1n[nH]c2ccc(-c3cncc(C(F)(F)F)c3)cc12 [Compound 16, N-(pyridin-3-yl)-5-(5-(trifluoromethyl)pyridin-3-yl)-1H-indazole-3-carboxamide]
IC50: ≥ 10000 nM

O=C(Nc1ccc(Oc2ccccc2F)nc1)c1n[nH]c2ccc(-c3cccnc3)cc12 [Compound 18, N-(6-(2-fluorophenoxy)pyridin-3-yl)-5-(pyridin-3-yl)-1H-indazole-3-carboxamide]
IC50: 122 nM

O=C(Nc1ccc(Oc2cccc(F)c2)nc1)c1n[nH]c2ccc(-c3cccnc3)cc12 [Compound 19, N-(6-(3-Fluorophenoxy)pyridin-3-yl)-5-(pyridin-3-yl)-1H-indazole-3-carboxamide]
IC50: 107 nM

O=C(Nc1ccc(Oc2ccc(F)cc2)nc1)c1n[nH]c2ccc(-c3cccnc3)cc12 [Compound 20, N-(6-(4-Fluorophenoxy)pyridin-3-yl)-5-(pyridin-3-yl)-1H-indazole-3-carboxamide]
IC50: 118 nM

O=C(Nc1cncc(F)c1)c1n[nH]c2ccc(-c3cccnc3)cc12 [Compound 23, N-(5-Fluoropyridin-3-yl)-5-(pyridin-3-yl)-1H-indazole-3-carboxamide]
IC50: 120 nM

CN(C)Cc1cncc(-c2ccc3[nH]nc(C(=O)Nc4ccc(C(F)(F)F)nc4)c3c2)c1 [Compound 26, 5-(5-((Dimethylamino)methyl)pyridin-3-yl)-N-(6-(trifluoromethyl)pyridin-3-yl)-1H-indazole-3-carboxamide]
IC50: 210 nM

O=C(Nc1cccnc1)c1n[nH]c2ccc(-c3cncc(NC(=O)N4CCOCC4)c3)cc12 [Compound 32, N-(5-(3-(Pyridin-3-ylcarbamoyl)-1H-indazol-5-yl)pyridin-3-yl) morpholine-4-carboxamide]
IC50: 1250 nM

CN(C)Cc1cncc(-c2ccc3[nH]nc(C(=O)Nc4ccc(Oc5ccccc5F)nc4)c3c2)c1 [Compound 36, 5-(5-((Dimethylamino)methyl)pyridin-3-yl)-N-(6-(2-fluorophenoxy)pyridin-3-yl)-1H-indazole-3-carboxamide]
IC50: 275 nM

Cn1nc(NC(=O)c2n[nH]c3ccc(-c4cccnc4)cc23)cc1C(F)(F)F [Compound 37, N-(1-Methyl-5-(trifluoromethyl)-1H-pyrazol-3-yl)-5-(pyridin-3-yl)-1H-indazole-3-carboxamide]
IC50: 1120 nM

CN1CCN(c2ccc(NC(=O)c3n[nH]c4ccc(-c5cncc(NC(=O)C6CC6)c5)cc34)cn2)CC1 [Compound 38, 5-(5-(Cyclopropanecarboxamido)pyridin-3-yl)-N-(6-(4-methylpiperazin-1-yl)pyridin-3-yl)-1H-indazole-3-carboxamide]
IC50: 120 nM

O=C(Nc1ccc(C(F)(F)F)nc1)c1n[nH]c2ccc(-c3cncc(NC(=O)C4CC4)c3)cc12 [Compound 39, 5-(5-(Cyclopropanecarboxamido)pyridin-3-yl)-N-(6-(trifluoromethyl)pyridin-3-yl)-1H-indazole-3-carboxamide]
IC50: 65 nM

CN(C)Cc1cncc(-c2ccc3[nH]nc(C(=O)Nc4cccnc4)c3c2)c1 [Compound 40, 5-(5-((Dimethylamino)methyl)pyridin-3-yl)-N-(pyridin-3-yl)-1H-indazole-3-carboxamide]
IC50: 65 nM

O=C(Nc1cccnc1)c1n[nH]c2ccc(-c3cncc(NC(=O)C4CC4)c3)cc12 [Compound 41, 5-(5-(Cyclopropanecarboxamido)pyridin-3-yl)-N-(pyridin-3-yl)-1H-indazole-3-carboxamide]
IC50: 67 nM

O=C(NCc1cccnc1)c1n[nH]c2ccc(-c3cccnc3)cc12 [Compound 42, 5-(Pyridin-3-yl)-N-(pyridin-3-ylmethyl)-1H-indazole-3-carboxamide]
IC50: 500 nM

O=C(Nc1cccnc1)c1n[nH]c2ccc(-c3cncc(CN4CCCC4)c3)cc12 [Compound 43, N-(Pyridin-3-yl)-5-(5-(pyrrolidin-1-ylmethyl)pyridin-3-yl)-1H-indazole-3-carboxamide]
IC50: 63 nM

Source: patent US11780823B2, “Indazole-3-carboxamides and their use as Wnt/β-catenin signaling pathway inhibitors” (BioSplice Therapeutics, Inc., priority 2011, dated 2023)
